Laboratory results taken from patent US11524968B2, “Heterocyclic compound as a protein kinase inhibitor” (HK inno.N Corporation, priority 2017, dated 2022).

Molecular target: JAK1 (Homo sapiens (Human), UniProt P23458)
Test: Analysis of JAK1 activity inhibition ability (ADP-Glo Kinase Assay)
Type: biochemical
Conditions: JAK1 enzyme, ADP-Glo luminescence, ATP 250 uM, IRS-itide substrate, 30° C. 40 minutes; read-out: IC50
In short: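 JAK1 enzyme, IRS-itide substrate (40 ng/mL) and 250 uM ATP, both as prepared in kinase buffer (Tris-HCl pH 7.5, MgCl2, BSA, DTT), reacted with compound 40 min at 30 °C. ADP formed was detected by ADP-Glo luminescence; IC50 is the concentration giving 50% inhibition versus control.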

Sequence of JAK1 (P23458 whole entry): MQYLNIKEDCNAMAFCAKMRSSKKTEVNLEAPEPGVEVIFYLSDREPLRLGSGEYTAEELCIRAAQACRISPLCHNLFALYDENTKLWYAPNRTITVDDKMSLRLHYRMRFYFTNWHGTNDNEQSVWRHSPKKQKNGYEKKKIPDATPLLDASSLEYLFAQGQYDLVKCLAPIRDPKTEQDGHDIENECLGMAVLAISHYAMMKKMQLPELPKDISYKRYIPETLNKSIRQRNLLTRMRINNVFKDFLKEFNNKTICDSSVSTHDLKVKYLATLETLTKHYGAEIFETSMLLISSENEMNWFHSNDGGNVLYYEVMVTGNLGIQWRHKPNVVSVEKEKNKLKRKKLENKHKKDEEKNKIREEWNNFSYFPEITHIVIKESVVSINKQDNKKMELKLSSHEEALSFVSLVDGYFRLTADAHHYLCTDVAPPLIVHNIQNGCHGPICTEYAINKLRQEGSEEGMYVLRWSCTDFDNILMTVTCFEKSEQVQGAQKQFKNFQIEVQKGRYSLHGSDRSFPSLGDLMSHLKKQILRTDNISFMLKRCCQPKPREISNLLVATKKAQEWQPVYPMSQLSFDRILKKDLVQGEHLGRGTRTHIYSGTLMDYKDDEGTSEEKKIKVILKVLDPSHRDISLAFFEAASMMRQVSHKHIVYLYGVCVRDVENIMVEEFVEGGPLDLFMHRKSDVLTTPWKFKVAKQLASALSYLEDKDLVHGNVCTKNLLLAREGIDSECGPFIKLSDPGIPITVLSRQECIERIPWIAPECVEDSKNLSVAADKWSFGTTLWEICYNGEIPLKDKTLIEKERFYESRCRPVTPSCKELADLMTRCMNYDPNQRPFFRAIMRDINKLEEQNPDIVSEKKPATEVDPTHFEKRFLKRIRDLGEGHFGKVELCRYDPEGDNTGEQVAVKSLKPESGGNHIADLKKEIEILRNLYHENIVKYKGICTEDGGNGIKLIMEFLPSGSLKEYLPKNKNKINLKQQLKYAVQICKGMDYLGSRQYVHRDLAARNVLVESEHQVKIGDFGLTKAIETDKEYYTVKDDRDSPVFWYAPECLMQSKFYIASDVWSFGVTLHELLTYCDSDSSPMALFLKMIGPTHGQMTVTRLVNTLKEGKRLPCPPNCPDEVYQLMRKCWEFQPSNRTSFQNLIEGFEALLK

| IC50 | Structure (SMILES) |
| --- | --- |
| > 200 nM | N#CCCC(=O)N1C[C@@H]2C[C@H]1CN2c1cc(NC(=O)C2CC2)nc2[nH]ccc12 [Example 680, N-(4-((1S,4S)-5-(3-cyanopropanoyl)-2,5-diazabicyclo[2.2.1]heptan-2-yl)-1H-pyrrolo[2,3-b]pyridin-6-yl)cyclopropanecarboxamide] |
| > 200 nM | N#CCC(=O)N1C[C@H]2C[C@@H]1CN2c1cc(NC(=O)C2CC2)nc2[nH]ccc12 [Example 681, N-(4-((1R,4R)-5-(2-cyanoacetyl)-2,5-diazabicyclo[2.2.1]heptan-2-yl)-1H-pyrrolo[2,3-b]pyridin-6-yl)cyclopropanecarboxamide] |
| > 200 nM | N#CCCC(=O)N1C[C@H]2C[C@@H]1CN2c1cc(NC(=O)C2CC2)nc2[nH]ccc12 [Example 682, N-(4-((1R,4R)-5-(3-cyanopropanoyl)-2,5-diazabicyclo[2.2.1]heptan-2-yl)-1H-pyrrolo[2,3-b]pyridin-6-yl)cyclopropanecarboxamide] |
| 20 to 200 nM | N#CC1(CC(=O)N2CCN(c3cc(NC(=O)C4CC4)nc4[nH]ccc34)CC2)CC1 [Example 683, N-(4-(4-(2-(1-cyanocyclopropyl)acetyl)piperazin-1-yl)-1H-pyrrolo[2,3-b]pyridin-6-yl)cyclopropanecarboxamide] |
| > 200 nM | N#CCCC(=O)N1CCN(c2cc(NC(=O)C3CC3)nc3[nH]ccc23)CC1 [Example 684, N-(4-(4-(3-cyanopropanoyl)piperazin-1-yl)-1H-pyrrolo[2,3-b]pyridin-6-yl)cyclopropanecarboxamide] |
| > 200 nM | N#CCC(=O)N1CCN(c2nc(NC(=O)C3CC3)nc3[nH]ccc23)CC1 [Example 687, N-(4-(4-(2-cyanoacetyl)piperazin-1-yl)-7H-pyrrolo[2,3-d]pyrimidin-2-yl)cyclopropanecarboxamide] |
| 20 to 200 nM | N#CCC(=O)N1C2CCC1CN(c1nc(NC(=O)C3CC3)nc3[nH]ccc13)C2 [Example 688, (N-(4-(8-(2-cyanoacetyl)-3,8-diazabicyclo[3.2.1]octan-3-yl)-7H-pyrrolo[2,3-d]pyrimidin-2-yl)cyclopropanecarboxamide)] |
| > 200 nM | O=C(Nc1cc(N2CCN(C(=O)NCC(F)(F)F)CC2)c2cc[nH]c2n1)C1CC1 [Example 690, 4-(6-(cyclopropanecarboxamido)-1H-pyrrolo[2,3-b]pyridin-4-yl)-N-(2,2,2-trifluoroethyl)piperazine-1-carboxamide] |
| > 200 nM | CC(C)(C)OC(=O)N1CCN(c2cc(NC(=O)C3CC3)nc3[nH]ccc23)CC1 [Example 692, tert-butyl 4-(6-(cyclopropanecarboxamido)-1H-pyrrolo[2,3-b]pyridine-4-yl)piperazin-1-carboxylate] |
| > 200 nM | CC(C)(C)OC(=O)N[C@H]1CCN(c2nc(NC(=O)C3CC3)nc3[nH]ccc23)C1 [Example 696, tert-butyl (S)-(1-(2-(cyclopropanecarboxamido)-7H-pyrrolo[2,3-d]pyrimidin-4-yl)pyrrolidin-3-yl)carbamate] |
| > 200 nM | CC(C)(C)OC(=O)N[C@H]1CCN(c2cc(NC(=O)C3CC3)nc3[nH]ccc23)C1 [Example 697, tert-butyl (S)-(1-(6-(cyclopropanecarboxamido)-1H-pyrrolo[2,3-b]pyridin-4-yl)pyrrolidin-3-yl)carbamate] |
| 20 to 200 nM | O=C(Nc1cc(N2CCN(Cc3ccns3)CC2)c2cc[nH]c2n1)C1CC1 [Example 698, N-(4-(4-(isothiazol-5-ylmethyl)piperazin-1-yl)-1H-pyrrolo[2,3-b]pyridin-6-yl)cyclopropanecarboxamide] |
| 20 to 200 nM | O=C(Nc1cc(N2CCN(C[C@@H]3CC3(F)F)CC2)c2cc[nH]c2n1)C1CC1 [Example 699, (S)—N-(4-(4-((2,2-difluorocyclopropyl)methyl)piperazin-1-yl)-1H-pyrrolo[2,3-b]pyridin-6-yl)cyclopropanecarboxamide] |
| > 200 nM | CCS(=O)(=O)N1CC(CC#N)(N2CCN(c3cc(NC(=O)C4CC4)nc4[nH]ccc34)CC2)C1 [Example 700, N-(4-(4-(3-(cyanomethyl)-1-(ethylsulfonyl)azetidin-3-yl)piperazin-1-yl)-1H-pyrrolo[2,3-b]pyridin-6-yl)cyclopropanecarboxamide] |

The next lines start with the compound.

| Structure (SMILES) | IC50 |
| --- | --- |
| N#CCC(=O)N1CC2CCC(C1)N2c1cc(NC(=O)C2CC2)nc2[nH]ccc12 [Example 678, N-(4-(3-(2-cyanoacetyl)-3,8-diazabicyclo[3.2.1]octan-8-yl)-1H-pyrrolo[2,3-b]pyridin-6-yl)cyclopropanecarboxamide] | 20 to 200 nM |
| N#CCC(=O)N1C[C@@H]2C[C@H]1CN2c1cc(NC(=O)C2CC2)nc2[nH]ccc12 [Example 679, N-(4-((1S,4S)-5-(2-cyanoacetyl)-2,5-diazabicyclo[2.2.1]heptan-2-yl)-1H-pyrrolo[2,3-b]pyridin-6-yl)cyclopropanecarboxamide] | > 200 nM |
| N#CCC(=O)N1C2CC1CN(c1cc(NC(=O)C3CC3)nc3[nH]ccc13)C2 [Example 685, N-(4-(6-(2-cyanoacetyl)-3,6-diazabicyclo[3.1.1]heptan-3-yl)-1H-pyrrolo[2,3-b]pyridin-6-yl)cyclopropanecarboxamide] | > 200 nM |
| N#Cc1cccc(C(=O)N2C3CCC2CN(c2cc(NC(=O)C4CC4)nc4[nH]ccc24)C3)c1 [Example 686, N-(4-(8-(3-cyanobenzoyl)-3,8-diazabicyclo[3.2.1]octan-3-yl)-1H-pyrrolo[2,3-b]pyridin-6-yl)cyclopropanecarboxamide] | < 20 nM |
| N#CC1(CC(=O)N2C3CCC2CN(c2nc(NC(=O)C4CC4)nc4[nH]ccc24)C3)CC1 [Example 689, N-(4-(8-(2-(1-cyanocyclopropyl)acetyl)-3,8-diazabicyclo[3.2.1]octan-3-yl)-7H-pyrrolo[2,3-d]pyrimidin-2-yl)cyclopropanecarboxamide] | 20 to 200 nM |
| O=C(Nc1cc(N2CC3CCC(C2)N3C(=O)NCC(F)(F)F)c2cc[nH]c2n1)C1CC1 [Example 691, 3-(6-(cyclopropanecarboxamido)-1H-pyrrolo[2,3-b]pyridin-4-yl)-N-(2,2,2-trifluoroethyl)-3,8-diazabicyclo[3.2.1]octane-8-carboxamide] | < 20 nM |
| CC(C)(C)OC(=O)N1C2CCC1CN(c1cc(NC(=O)C3CC3)nc3[nH]ccc13)C2 [Example 693, tert-butyl 3-(6-(cyclopropanecarboxamido)-1H-pyrrolo[2,3-b]pyridin-4-yl)-3,8-diazabicyclo[3.2.1]octane-8-carboxylate] | 20 to 200 nM |
| CC(C)(C)OC(=O)N1CC2CCC(C1)N2c1cc(NC(=O)C2CC2)nc2[nH]ccc12 [Example 694, tert-butyl 8-(6-(cyclopropanecarboxamido)-1H-pyrrolo[2,3-b]pyridin-4-yl)-3,8-diazabicyclo[3.2.1]octane-3-carboxylate] | > 200 nM |
| CC(C)(C)OC(=O)N1C2CCC1CN(c1nc(NC(=O)C3CC3)nc3[nH]ccc13)C2 [Example 695, tert-butyl 3-(2-(cyclopropanecarboxamido)-7H-pyrrolo[2,3-d]pyrimidin-4-yl)-3,8-diazabicyclo[3.2.1]octane-8-carboxylate] | 20 to 200 nM |
| CCS(=O)(=O)N1CC(CC#N)(N2C3CCC2CN(c2cc(NC(=O)C4CC4)nc4[nH]ccc24)C3)C1 [Example 701, N-(4-(8-(3-(cyanomethyl)-1-(ethylsulfonyl)azetidin-3-yl)-3,8-diazabicyclo[3.2.1]octan-3-yl)-1H-pyrrolo[2,3-b]pyridin-6-yl)cyclopropanecarboxamide] | > 200 nM |
